One molecule from US12622910B2, “Inhibitors of Bruton's tyrosine kinase and methods of their use” (Janssen Pharmaceutica NV, priority 2021, dated 2026) can be followed below.

The subject of one data set is Ca channel. As to the kind of experiment: Receptor panel, Study 2. The data set is classed as binding. The method, then: (§1) RESULTS AND DISCUSSION—Selectivity—The compound of Formula (III) was evaluated in three selectivity panels to assess the potential for off-target pharmacology (Table 8). […] The kinase off-target profile of The compound of Formula (III) was assessed in a full human wild-type panel using radiometric kinase activity assays (KinaseProfiler™ and IC50Profiler™; Eurofins Scientific) (Table 9; FIG. 23). The compound of Formula (III) inhibited 4/278 kinases >50% at 1 micromolar, identifying BTK and the three other kinases having analogous Cys residues with the potential for covalent inhibition (BMX, TEC, BLK). […]. The cellular kinase selectivity of The compound of Formula (III) was established in native Ramos B cell kinome assays (KiNativ™; ActivX) confirmed BTK as the primary target with inhibition of BLK and TEC inhibition detected (Table 10).

The next data set concerns the target N neuronal α4β2 (h) (Homo sapiens, UniProt P17787+P43681). As to the kind of experiment: Receptor panel, Study 2. The data set is classed as binding. The method, then:
as §1

In the next data set the target is PDE4D2 (h) (Homo sapiens, UniProt Q08499). As to the kind of experiment: Receptor panel, Study 2. In kind it is binding. The procedure: as §1
PDE4D2 (h), sequence (Q08499 303-809 limits assumed): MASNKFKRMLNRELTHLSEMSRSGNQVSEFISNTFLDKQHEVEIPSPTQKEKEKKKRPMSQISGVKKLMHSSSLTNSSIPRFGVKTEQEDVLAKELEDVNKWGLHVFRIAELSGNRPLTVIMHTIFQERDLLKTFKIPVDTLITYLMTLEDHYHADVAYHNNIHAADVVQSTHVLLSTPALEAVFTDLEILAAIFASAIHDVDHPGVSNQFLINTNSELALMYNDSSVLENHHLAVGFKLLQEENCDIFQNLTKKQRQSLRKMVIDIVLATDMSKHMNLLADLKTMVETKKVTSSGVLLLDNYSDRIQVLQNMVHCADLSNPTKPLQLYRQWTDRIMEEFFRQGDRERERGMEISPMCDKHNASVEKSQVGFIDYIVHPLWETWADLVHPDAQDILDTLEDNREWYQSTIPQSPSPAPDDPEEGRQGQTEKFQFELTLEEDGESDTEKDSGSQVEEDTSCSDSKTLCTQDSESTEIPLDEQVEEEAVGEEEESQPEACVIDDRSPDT
The target of a further data set is Ach (h) (Homo sapiens, UniProt P22303). Put plainly: Receptor panel, Study 2. The data set is classed as binding. The method, then: as §1
A further data set addresses AR (h) (Homo sapiens, UniProt P10275). Put plainly: Receptor panel, Study 2. The data set is classed as binding. The method, then:
as §1

Another data set addresses mGluR5 (h) (Homo sapiens, UniProt P41594). Put plainly: Receptor panel, Study 2. The data set is classed as binding. The procedure: as §1
Another data set concerns the target CB2 (h) (Homo sapiens, UniProt P34972). As to the kind of experiment: Receptor panel, Study 2. In kind it is binding. The procedure:
as §1

The next data set addresses Beta2 (h) (Homo sapiens, UniProt P07550). Put plainly: Receptor panel, Study 2. In kind it is binding. The method, then: as §1
The next data set addresses PDE3A (h) (Homo sapiens, UniProt Q14432). As to the kind of experiment: Receptor panel, Study 2. The data set is classed as binding. The method, then: as §1
A further data set deals with MAO-A (Rattus norvegicus, UniProt P21396). As to the kind of experiment: Receptor panel, Study 2. In kind it is binding. The procedure:
as §1

Another data set deals with GR (h) (Homo sapiens, UniProt P04150). As to the kind of experiment: Receptor panel, Study 2. The data set is classed as binding. The procedure:
as §1

The next data set addresses CB1 (h) (Homo sapiens, UniProt P21554). Put plainly: Receptor panel, Study 2. The data set is classed as binding. The method, then: as §1
The test system of the next data set is NMDA. As to the kind of experiment: Receptor panel, Study 2. In kind it is binding. The procedure: as §1
Another data set deals with CYP1A. Put plainly: CYP induction in plated human hepatocytes, phenacetin probe. In kind it is in vitro ADME. Conditions: 48 hours.
A short description of data set [1]: Blood-to-plasma concentration ratio. The data set is classed as in vitro ADME. To be noted: monkey, fresh blood.
The test system of the next data set is AhR. As to the kind of experiment: Puracyp DRE luciferase-reporter cell line (CYP1A2 induction). The data set is classed as in vitro ADME. The procedure: To assess the potential of the compound of Formula (III) to be a time-dependent inhibitor of CYP3A, human liver microsomes were preincubated for 30 minutes at 37° C. with the compound of Formula (III) at concentrations up to 10 μM, and CYP3A activity was measured using testosterone as a probe substrate. […] The potential of the compound of Formula (III) to induce CYPs at the transcriptional level was assessed using Puracyp™ DPX2 (CYP3A4, PXR) and DRE (CYP1A2, AhR) luciferase-reporter cell lines; rifampicin and omeprazole were used as positive controls for CYP3A and CYP1A induction, respectively. The activation by the compound of Formula (III) was <20% of positive control values for PXR (6.6% and 14.1% at 1 and 10 μM change, respectively) or AhR (0.1% and 0.3% change, respectively). […] Potential involvement of various CYP isoforms in the metabolism of the compound of Formula (III) was investigated by measuring the parent compound remaining after 1-hour incubation with the compound of Formula (III) (1 μM) with recombinant CYPs (rCYPs) at 100 pmol P450/mL in the presence of 1 mM NADPH at 37° C. The only isozyme that produced notable the compound of Formula (III) turnover with <1% parent remaining after 1-hour incubation was CYP3A4 (FIG. 24). […]

The subject of data set [2] is IL-6 secretion, ABC-DLBCL OCI-LY-10 cells. Put plainly: IL-6 secretion by OCI-LY-10 cells (MesoScale). To be noted: Homo sapiens, OCI-Ly10; 6 independent experiments; read-out: IC50, IL-6 secretion (mean±SEM). In kind it is cell-based. The method, then:
In Vitro Activity in DLBCL Cell Lines—NFκB signaling regulates the secretion of multiple cytokines, including interleukin (IL)-6 and IL-10. Secretion of IL-6 and -10 by ABC-DLBCL OCI-LY-10 cells was measured using a MesoScale assay. […] To determine the anti-proliferative activity of the compound of formula (III), several ABC-DLBCL cell lines—OCI-LY-3, OCI-LY-10, TMD8, and HBL-1—were treated for 8 days. […] The OCI-LY-3 cell line, which harbors a CARD11 mutation downstream of BTK in the NF-κB signaling pathway, was completely insensitive to the compound of Formula (III) up to 2 μM. In 2 experiments, OCI-LY-3 cells were insensitive to the compound of Formula (III) at all concentrations up to 10 μM.

Data set [3] is described as follows: Metabolic stability in liver microsomes. In kind it is in vitro ADME, rat. The method, then: Additional Data on Preclinical PK Profile—Protein binding of the compound of Formula (III) was studied using an equilibrium dialysis method in plasma from human, cynomolgus monkey, beagle dog, Sprague Dawley rat, CD-1 mouse, and guinea pig at 0.25, 2.5, and 25 μM. […] In human and monkey, the plasma protein binding was concentration dependent. […] Free fraction of the compound of Formula (III) in liver microsomes from various species ranged from 75.1% to 87.9% at 0.25 mg/mL and from 58.9% to 86.5% at 1.0 mg/mL (Table 17). […] In hepatocytes, the compound of Formula (III) turnover followed a similar trend, with T1/2 ranging from 75.3 minutes in monkey to 278.1 minutes in human.
In general terms: Liver microsomes are vesicles of endoplasmic reticulum, rich in cytochrome P450 enzymes.

N neuronal α4β2 (h), sequence (P43681 29-627 limits assumed): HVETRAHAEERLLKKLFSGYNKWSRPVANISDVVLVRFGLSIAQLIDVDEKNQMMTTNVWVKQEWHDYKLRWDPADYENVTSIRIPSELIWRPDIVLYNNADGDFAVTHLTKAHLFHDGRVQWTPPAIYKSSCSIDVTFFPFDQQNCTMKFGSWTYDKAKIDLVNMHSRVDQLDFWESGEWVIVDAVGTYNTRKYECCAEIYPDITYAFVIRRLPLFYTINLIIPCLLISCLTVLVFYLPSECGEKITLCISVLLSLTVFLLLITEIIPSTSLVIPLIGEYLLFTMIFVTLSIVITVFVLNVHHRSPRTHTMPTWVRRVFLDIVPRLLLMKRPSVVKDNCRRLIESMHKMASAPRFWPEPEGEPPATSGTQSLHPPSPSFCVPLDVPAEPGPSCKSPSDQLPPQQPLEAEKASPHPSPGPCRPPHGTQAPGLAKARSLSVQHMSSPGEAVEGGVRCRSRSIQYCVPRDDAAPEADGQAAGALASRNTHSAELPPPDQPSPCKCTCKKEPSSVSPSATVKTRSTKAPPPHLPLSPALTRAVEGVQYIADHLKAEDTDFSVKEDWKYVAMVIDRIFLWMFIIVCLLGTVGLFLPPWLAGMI
N neuronal α4β2 (h), sequence (P17787 26-502): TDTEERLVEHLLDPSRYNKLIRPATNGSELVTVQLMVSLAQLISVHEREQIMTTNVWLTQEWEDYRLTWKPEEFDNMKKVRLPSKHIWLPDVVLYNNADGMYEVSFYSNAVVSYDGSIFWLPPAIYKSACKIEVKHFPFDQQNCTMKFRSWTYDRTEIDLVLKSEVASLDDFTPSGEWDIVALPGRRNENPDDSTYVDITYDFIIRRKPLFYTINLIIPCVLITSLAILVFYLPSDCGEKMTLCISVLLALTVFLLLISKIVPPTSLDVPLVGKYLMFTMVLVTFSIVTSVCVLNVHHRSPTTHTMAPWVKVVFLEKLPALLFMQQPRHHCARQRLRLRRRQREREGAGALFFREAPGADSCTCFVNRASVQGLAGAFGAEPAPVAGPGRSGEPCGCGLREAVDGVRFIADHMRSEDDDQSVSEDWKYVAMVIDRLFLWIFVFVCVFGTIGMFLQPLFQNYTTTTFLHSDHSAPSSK
GR (h), sequence (P04150 whole entry): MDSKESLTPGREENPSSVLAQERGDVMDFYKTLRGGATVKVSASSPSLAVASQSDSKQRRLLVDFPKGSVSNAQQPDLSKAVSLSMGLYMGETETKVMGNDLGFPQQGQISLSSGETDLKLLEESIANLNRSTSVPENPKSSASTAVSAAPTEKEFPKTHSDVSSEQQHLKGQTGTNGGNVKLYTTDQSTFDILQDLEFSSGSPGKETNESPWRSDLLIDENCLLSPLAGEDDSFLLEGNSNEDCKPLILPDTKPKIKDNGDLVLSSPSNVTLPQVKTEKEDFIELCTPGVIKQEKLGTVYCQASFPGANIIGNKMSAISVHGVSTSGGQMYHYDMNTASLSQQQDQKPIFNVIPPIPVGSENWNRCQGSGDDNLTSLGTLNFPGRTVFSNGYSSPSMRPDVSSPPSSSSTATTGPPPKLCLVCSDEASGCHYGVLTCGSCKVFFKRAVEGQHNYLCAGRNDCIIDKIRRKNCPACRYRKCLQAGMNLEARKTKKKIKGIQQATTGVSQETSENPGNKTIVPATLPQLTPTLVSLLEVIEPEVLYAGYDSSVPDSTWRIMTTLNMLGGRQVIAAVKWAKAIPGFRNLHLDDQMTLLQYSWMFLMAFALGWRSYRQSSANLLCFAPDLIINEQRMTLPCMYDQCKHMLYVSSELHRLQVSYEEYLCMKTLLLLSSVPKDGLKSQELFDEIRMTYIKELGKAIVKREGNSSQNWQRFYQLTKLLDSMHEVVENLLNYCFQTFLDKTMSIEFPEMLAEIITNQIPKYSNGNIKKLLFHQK
CB2 (h), sequence (P34972 whole entry): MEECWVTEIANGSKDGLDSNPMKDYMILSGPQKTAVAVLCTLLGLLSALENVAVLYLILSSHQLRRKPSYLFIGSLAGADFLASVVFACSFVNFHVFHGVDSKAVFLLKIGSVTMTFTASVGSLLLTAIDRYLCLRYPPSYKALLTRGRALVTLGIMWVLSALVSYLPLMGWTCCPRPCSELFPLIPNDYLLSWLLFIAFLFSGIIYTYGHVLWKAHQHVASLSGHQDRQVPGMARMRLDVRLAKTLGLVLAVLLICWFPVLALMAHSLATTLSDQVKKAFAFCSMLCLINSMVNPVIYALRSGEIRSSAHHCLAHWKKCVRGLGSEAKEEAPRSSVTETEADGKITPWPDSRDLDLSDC
CB1 (h), sequence (P21554 whole entry): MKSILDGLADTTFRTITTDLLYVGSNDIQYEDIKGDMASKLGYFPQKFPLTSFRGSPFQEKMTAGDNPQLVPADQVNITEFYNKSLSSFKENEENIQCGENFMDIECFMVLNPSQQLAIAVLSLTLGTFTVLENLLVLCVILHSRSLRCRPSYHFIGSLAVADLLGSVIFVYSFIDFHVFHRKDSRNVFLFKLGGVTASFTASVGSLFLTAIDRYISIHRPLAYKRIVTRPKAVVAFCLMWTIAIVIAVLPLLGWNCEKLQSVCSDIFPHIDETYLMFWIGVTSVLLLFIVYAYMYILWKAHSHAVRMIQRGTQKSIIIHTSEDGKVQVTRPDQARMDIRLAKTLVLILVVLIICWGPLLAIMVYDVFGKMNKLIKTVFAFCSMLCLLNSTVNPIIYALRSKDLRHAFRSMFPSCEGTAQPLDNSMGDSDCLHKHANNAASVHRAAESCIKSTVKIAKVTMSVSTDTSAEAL
MAO-A, sequence (P21396 whole entry): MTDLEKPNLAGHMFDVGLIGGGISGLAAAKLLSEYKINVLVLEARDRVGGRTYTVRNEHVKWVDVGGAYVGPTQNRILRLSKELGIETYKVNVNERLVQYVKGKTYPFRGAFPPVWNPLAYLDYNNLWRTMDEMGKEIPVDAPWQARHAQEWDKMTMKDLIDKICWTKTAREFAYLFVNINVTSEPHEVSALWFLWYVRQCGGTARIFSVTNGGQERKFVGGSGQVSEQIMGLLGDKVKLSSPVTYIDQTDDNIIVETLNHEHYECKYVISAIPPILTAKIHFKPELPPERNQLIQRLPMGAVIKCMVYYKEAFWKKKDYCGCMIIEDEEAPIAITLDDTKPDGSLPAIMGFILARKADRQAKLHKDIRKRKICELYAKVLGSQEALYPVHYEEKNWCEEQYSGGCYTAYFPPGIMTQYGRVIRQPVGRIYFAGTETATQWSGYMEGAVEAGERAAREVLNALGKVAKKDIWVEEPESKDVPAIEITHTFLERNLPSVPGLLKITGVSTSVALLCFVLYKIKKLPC
PDE3A (h), sequence (Q14432 whole entry): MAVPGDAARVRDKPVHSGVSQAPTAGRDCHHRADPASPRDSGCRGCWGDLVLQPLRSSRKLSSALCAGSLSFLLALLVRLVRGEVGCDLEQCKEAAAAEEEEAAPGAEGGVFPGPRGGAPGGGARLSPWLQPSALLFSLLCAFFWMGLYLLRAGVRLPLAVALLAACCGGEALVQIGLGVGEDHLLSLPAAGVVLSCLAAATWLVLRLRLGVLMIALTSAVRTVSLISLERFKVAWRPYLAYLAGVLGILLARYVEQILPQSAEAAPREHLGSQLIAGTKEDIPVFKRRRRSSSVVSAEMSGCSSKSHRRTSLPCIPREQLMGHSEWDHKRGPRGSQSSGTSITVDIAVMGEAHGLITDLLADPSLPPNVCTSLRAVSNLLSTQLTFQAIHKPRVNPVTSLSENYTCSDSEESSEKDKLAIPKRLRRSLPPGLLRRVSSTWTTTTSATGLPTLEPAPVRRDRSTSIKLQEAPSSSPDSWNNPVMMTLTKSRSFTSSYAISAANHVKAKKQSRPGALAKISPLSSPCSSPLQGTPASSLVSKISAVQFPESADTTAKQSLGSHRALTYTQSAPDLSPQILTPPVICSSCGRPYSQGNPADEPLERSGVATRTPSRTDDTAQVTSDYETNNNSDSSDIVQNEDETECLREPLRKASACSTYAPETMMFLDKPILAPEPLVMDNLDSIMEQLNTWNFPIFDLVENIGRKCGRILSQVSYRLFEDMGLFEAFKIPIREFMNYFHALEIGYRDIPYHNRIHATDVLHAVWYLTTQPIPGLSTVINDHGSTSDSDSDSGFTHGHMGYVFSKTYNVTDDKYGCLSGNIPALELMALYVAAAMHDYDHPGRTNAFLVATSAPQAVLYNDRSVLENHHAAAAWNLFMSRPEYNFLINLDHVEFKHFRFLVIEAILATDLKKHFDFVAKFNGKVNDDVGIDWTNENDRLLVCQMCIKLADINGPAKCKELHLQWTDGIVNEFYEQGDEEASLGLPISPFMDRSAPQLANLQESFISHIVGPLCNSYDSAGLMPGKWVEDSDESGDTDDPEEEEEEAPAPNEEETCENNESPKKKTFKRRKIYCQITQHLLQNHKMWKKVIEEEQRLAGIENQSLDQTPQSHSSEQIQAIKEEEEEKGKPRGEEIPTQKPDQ

As a reminder, the inhibition is how much of the control response was suppressed. Low readings indicate a weak effect, high ones a strong effect. As usually defined, the IC50 is the concentration at which inhibition is half-maximal. Usually microsomal CLint stands for the rate of metabolic loss divided by the concentration. As to `C=CC(=O)N[C@H]1CCC[C@H]1NC(=O)c1sc2nccc3c2c1NC(=O)N3c1cnc(CC(C)C)cc1C` (atropisomer, axis not shown) [compound of Formula (III), N-((1R,2S)-2-Acrylamidocyclopentyl)-5-(S)-(6-isobutyl-4-methylpyridin-3-yl)-4-oxo-4,5-dihydro-3H-1-thia-3,5,8-triazaacenaphthylene-2-carboxamide], the “% Inhibition at 10 μM” value with Ca channel and in the data set with NMDA was “— (no inhibition observed)” throughout. The inhibition at 10 µM against N neuronal α4β2 (h) is less than 10%; at PDE4D2 (h), less than 10%; on Ach (h), 11%; at AR (h) it was less than 10%; at mGluR5 (h), less than 10%; against CB2 (h) it was less than 10%. Moreover, the inhibition at 10 µM against Beta2 (h) was less than 10%; on PDE3A (h), less than 10%; against MAO-A, 14%; at GR (h) it was less than 10%; on CB1 (h), less than 10%. The results for the “change in CYP1A enzyme activity” value in the data set with CYP1A (1 μM) and with CYP1A (10 μM) were 0.2% and 1.0%, respectively. In [1], the blood plasma ratio at 1 μM is 0.69. Further, the figures for the “AhR activation, % of positive control (omeprazole)” value with AhR (1 μM) and in the data set on AhR (10 μM) were 0.1% and 0.3%, respectively. Moreover, in data set [2], the IC50 was 0.016 ± 0.003 µM. In [3] (Rat), the “Extraction Ratio, liver microsomes” value is 0.58. Further, the intrinsic clearance (microsomal CLint) in [3] (rat, liver microsomes) is 53.8 µL/min/mg. Also, in [3] (rat, liver microsomes, read-out: T1/2, liver microsomes), the half-life was determined as 12.9 min.
